In publication PMC6600542 (Molecules, 2019):

Experiments:
normal human plasma [1] = experiment: APTT clotting assay, normal human plasma; type: biochemical
Procedure: (§1) For the PT assay, thromboplastin-D was reconstituted according to the manufacturer’s directions and warmed to 37 °C. […] After incubation for 4 min at 37 °C, clotting was initiated by adding 100 μL of prewarmed 25 mM CaCl2 and the time to clotting was noted. […] To determine the in vitro effect on the APTT of deficient human plasmas, the APTT assay was repeated, using human plasmas deficient of factor VII (FVII), factor IX (FIX), FXI, or factor XII (FXII). […] The positive control used in APTT and PT assays was rivaroxaban, a clinically used FXa inhibitor. Under the conditions reported, rivaroxaban doubled the APTT and PT at concentrations of 0.123 ± 0.003 µM and 0.193 ± 0.043 µM, respectively.

normal human plasma [2] = experiment: PT clotting assay, normal human plasma; type: biochemical; conditions: normal human plasma (text)
Procedure: as §1

normal human plasma [3] = conditions: cited from earlier work

## O=S(=O)(O)CCO [isethionic acid]
Normal human plasma [1]; normal human plasma, highest concentration tested of 33.3 mM
  effect on the APTT: did not affect the APTT

## O=C(NC[C@H]1CN(c2ccc(N3CCOCC3=O)cc2)C(=O)O1)c1ccc(Cl)s1 [rivaroxaban]
Normal human plasma [1]; normal human plasma (text)
  concentration to double the APTT: 0.123 ± 0.003 µM
Normal human plasma [2]
  concentration to double the PT: 0.193 ± 0.043 µM
Normal human plasma [3]
  effect on TT: no effect on TT
